System: 138582-337-R-J1-PDC spheroids with HUVEC/MSC, viability
Experiment: Anticancer human tumor 138582-337-R-J1-PDC patient-derived Merkel cell tumor cell line growth inhibition [IpAb]
Details: for IC50: curve of first compound; for viability, T/C: stronger effect = lower value
Procedure, shortened: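 Combinations with ipatasertib or abemaciclib were tested on tumour spheroids holding HUVEC (25%) and MSC (15%) alongside 60% malignant cells. Top concentration was at or near clinical Cmax (10 microM if undefined), descending in half-log steps.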

[1] = second compound 0.1 µM, first compound 0.0316 µM
[2] = second compound 0.1 µM, first compound 0.1 µM
[3] = second compound 0.1 µM, first compound 0.316 µM
[4] = second compound 0.1 µM, first compound 1 µM
[5] = second compound 0.1 µM, first compound 3.16 µM
[6] = second compound 0.1 µM, first compound 10 µM
[7] = second compound 0.316 µM, first compound 0.0316 µM
[8] = second compound 0.316 µM, first compound 0.1 µM
[9] = second compound 0.316 µM, first compound 0.316 µM
[10] = second compound 0.316 µM, first compound 1 µM
[11] = second compound 0.316 µM, first compound 3.16 µM
[12] = second compound 0.316 µM, first compound 10 µM
[13] = second compound 1 µM, first compound 0.0316 µM
[14] = second compound 1 µM, first compound 0.1 µM
[15] = second compound 1 µM, first compound 0.316 µM
[16] = second compound 1 µM, first compound 1 µM
[17] = second compound 1 µM, first compound 3.16 µM
[18] = second compound 1 µM, first compound 10 µM
[19] = second compound 3.16 µM, first compound 0.0316 µM
[20] = second compound 3.16 µM, first compound 0.1 µM
[21] = second compound 3.16 µM, first compound 0.316 µM
[22] = second compound 3.16 µM, first compound 1 µM
[23] = second compound 3.16 µM, first compound 3.16 µM
[24] = second compound 3.16 µM, first compound 10 µM
[25] = second compound 10 µM, first compound 0.0316 µM
[26] = second compound 10 µM, first compound 0.1 µM
[27] = second compound 10 µM, first compound 0.316 µM
[28] = second compound 10 µM, first compound 1 µM
[29] = second compound 10 µM, first compound 3.16 µM
[30] = second compound 10 µM, first compound 10 µM
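Further: spheroids exposed to compounds for seven days.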
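Wherever viability, T/C is given: 100% = DMSO vehicle control viability.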

C=CC(=O)N1CCN(c2nc(=O)n(-c3c(C)ccnc3C(C)C)c3nc(-c4c(O)cccc4F)c(F)cc23)C(C)C1 (stereo not given) + CC(C)NCC(C(=O)N1CCN(c2ncnc3c2C(C)CC3O)CC1)c1ccc(Cl)cc1
IC50 (second compound 0.1 µM): > 10000 nM
IC50 (second compound 0.316 µM): > 10000 nM
IC50 (second compound 1 µM): > 10000 nM
IC50 (second compound 3.16 µM): > 10000 nM
IC50 (second compound 10 µM): 31.6 nM
viability, T/C [1]: 90.2%
viability, T/C [2]: 95.5%
viability, T/C [3]: 91.4%
viability, T/C [4]: 101%
viability, T/C [5]: 115%
viability, T/C [6]: 168%
viability, T/C [7]: 90.6%
viability, T/C [8]: 86.2%
viability, T/C [9]: 83.5%
viability, T/C [10]: 90.1%
viability, T/C [11]: 105%
viability, T/C [12]: 132%
viability, T/C [13]: 71.9%
viability, T/C [14]: 66.6%
viability, T/C [15]: 71.4%
viability, T/C [16]: 74.9%
viability, T/C [17]: 86.6%
viability, T/C [18]: 77.5%
viability, T/C [19]: 57.1%
viability, T/C [20]: 56.8%
viability, T/C [21]: 59.4%
viability, T/C [22]: 63.4%
viability, T/C [23]: 69%
viability, T/C [24]: 54%
viability, T/C [25]: 38.7%
viability, T/C [26]: 49.9%
viability, T/C [27]: 47.9%
viability, T/C [28]: 47.6%
viability, T/C [29]: 52.4%
viability, T/C [30]: 32.3%

CC(C)(C)c1cnc(CSc2cnc(NC(=O)C3CCNCC3)s2)o1 + CC(C)NCC(C(=O)N1CCN(c2ncnc3c2C(C)CC3O)CC1)c1ccc(Cl)cc1
IC50 (second compound 0.1 µM): 94.5 nM
IC50 (second compound 0.316 µM): 76.7 nM
IC50 (second compound 1 µM): 52.9 nM
IC50 (second compound 3.16 µM): 37.1 nM
IC50 (second compound 10 µM): < 9.49 nM
viability, T/C (second compound 0.1 µM, first compound 0.00949 µM): 104%
viability, T/C (second compound 0.1 µM, first compound 0.03 µM): 97.3%
viability, T/C (second compound 0.1 µM, first compound 0.0949 µM): 50.3%
viability, T/C (second compound 0.1 µM, first compound 0.3 µM): 0.31%
viability, T/C (second compound 0.1 µM, first compound 0.949 µM): 0.3%
viability, T/C (second compound 0.1 µM, first compound 3 µM): 0.37%
viability, T/C (second compound 0.316 µM, first compound 0.00949 µM): 79%
viability, T/C (second compound 0.316 µM, first compound 0.03 µM): 74.3%
viability, T/C (second compound 0.316 µM, first compound 0.0949 µM): 44.2%
viability, T/C (second compound 0.316 µM, first compound 0.3 µM): 0.31%
viability, T/C (second compound 0.316 µM, first compound 0.949 µM): 0.36%
viability, T/C (second compound 0.316 µM, first compound 3 µM): 0.44%
viability, T/C (second compound 1 µM, first compound 0.00949 µM): 72.7%
viability, T/C (second compound 1 µM, first compound 0.03 µM): 72.2%
viability, T/C (second compound 1 µM, first compound 0.0949 µM): 27%
viability, T/C (second compound 1 µM, first compound 0.3 µM): 0.41%
viability, T/C (second compound 1 µM, first compound 0.949 µM): 0.35%
viability, T/C (second compound 1 µM, first compound 3 µM): 0.37%
viability, T/C (second compound 3.16 µM, first compound 0.00949 µM): 55.2%
viability, T/C (second compound 3.16 µM, first compound 0.03 µM): 58.7%
viability, T/C (second compound 3.16 µM, first compound 0.0949 µM): 19.5%
viability, T/C (second compound 3.16 µM, first compound 0.3 µM): 0.33%
viability, T/C (second compound 3.16 µM, first compound 0.949 µM): 0.23%
viability, T/C (second compound 3.16 µM, first compound 3 µM): 0.81%
viability, T/C (second compound 10 µM, first compound 0.00949 µM): 43.8%
viability, T/C (second compound 10 µM, first compound 0.03 µM): 43.9%
viability, T/C (second compound 10 µM, first compound 0.0949 µM): 5.74%
viability, T/C (second compound 10 µM, first compound 0.3 µM): 0.5%
viability, T/C (second compound 10 µM, first compound 0.949 µM): 0.35%
viability, T/C (second compound 10 µM, first compound 3 µM): 0.49%

Cn1ncc(Cl)c1-c1cc(C(=O)NC(CN)Cc2cccc(F)c2)sc1Cl (stereo not given) + CC(C)NCC(C(=O)N1CCN(c2ncnc3c2C(C)CC3O)CC1)c1ccc(Cl)cc1
IC50 (second compound 0.1 µM): 3040 nM
IC50 (second compound 0.316 µM): 3800 nM
IC50 (second compound 1 µM): 3320 nM
IC50 (second compound 3.16 µM): 3410 nM
IC50 (second compound 10 µM): 686 nM
viability, T/C [1]: 89.4%
viability, T/C [2]: 83%
viability, T/C [3]: 75.9%
viability, T/C [4]: 61.4%
viability, T/C [5]: 57.4%
viability, T/C [6]: 0.26%
viability, T/C [7]: 80.7%
viability, T/C [8]: 67.3%
viability, T/C [9]: 74.2%
viability, T/C [10]: 64.8%
viability, T/C [11]: 61.5%
viability, T/C [12]: 0.25%
viability, T/C [13]: 71.7%
viability, T/C [14]: 73.1%
viability, T/C [15]: 75.7%
viability, T/C [16]: 55.7%
viability, T/C [17]: 56.8%
viability, T/C [18]: 0.23%
viability, T/C [19]: 60.5%
viability, T/C [20]: 62%
viability, T/C [21]: 55.9%
viability, T/C [22]: 58%
viability, T/C [23]: 53.6%
viability, T/C [24]: 0.23%
viability, T/C [25]: 53.1%
viability, T/C [26]: 45.6%
viability, T/C [27]: 51.8%
viability, T/C [28]: 50.8%
viability, T/C [29]: 44.6%
viability, T/C [30]: 0.3%

Cn1nccc1Nc1nccc(-c2ccn(C(CO)c3ccc(Cl)c(F)c3)c(=O)c2)n1 (stereo not given) + CC(C)NCC(C(=O)N1CCN(c2ncnc3c2C(C)CC3O)CC1)c1ccc(Cl)cc1
IC50 (second compound 0.1 µM): > 10000 nM
IC50 (second compound 0.316 µM): > 10000 nM
IC50 (second compound 1 µM): 1700 nM
IC50 (second compound 3.16 µM): 158 nM
IC50 (second compound 10 µM): < 31.6 nM
viability, T/C [1]: 104%
viability, T/C [2]: 88.8%
viability, T/C [3]: 91.8%
viability, T/C [4]: 100%
viability, T/C [5]: 108%
viability, T/C [6]: 124%
viability, T/C [7]: 82.8%
viability, T/C [8]: 82.8%
viability, T/C [9]: 77%
viability, T/C [10]: 73.5%
viability, T/C [11]: 75.8%
viability, T/C [12]: 70%
viability, T/C [13]: 68.2%
viability, T/C [14]: 70.5%
viability, T/C [15]: 67.6%
viability, T/C [16]: 51.4%
viability, T/C [17]: 44.8%
viability, T/C [18]: 17.1%
viability, T/C [19]: 47.4%
viability, T/C [20]: 55.1%
viability, T/C [21]: 48.8%
viability, T/C [22]: 38.8%
viability, T/C [23]: 19.9%
viability, T/C [24]: 4.47%
viability, T/C [25]: 45.9%
viability, T/C [26]: 47.5%
viability, T/C [27]: 34.2%
viability, T/C [28]: 22.8%
viability, T/C [29]: 6.51%
viability, T/C [30]: 1.06%

Cn1ncnc1[C@H]1c2n[nH]c(=O)c3cc(F)cc(c23)N[C@@H]1c1ccc(F)cc1 + CC(C)NCC(C(=O)N1CCN(c2ncnc3c2C(C)CC3O)CC1)c1ccc(Cl)cc1
IC50 (second compound 0.1 µM): > 100 nM
IC50 (second compound 0.316 µM): > 100 nM
IC50 (second compound 1 µM): > 100 nM
IC50 (second compound 3.16 µM): > 100 nM
IC50 (second compound 10 µM): < 0.316 nM
viability, T/C (second compound 0.1 µM, first compound 0.000316 µM): 99.1%
viability, T/C (second compound 0.1 µM, first compound 0.001 µM): 83%
viability, T/C (second compound 0.1 µM, first compound 0.00316 µM): 89.1%
viability, T/C (second compound 0.1 µM, first compound 0.01 µM): 78.3%
viability, T/C [1]: 78.6%
viability, T/C [2]: 82.9%
viability, T/C (second compound 0.316 µM, first compound 0.000316 µM): 69.7%
viability, T/C (second compound 0.316 µM, first compound 0.001 µM): 81.8%
viability, T/C (second compound 0.316 µM, first compound 0.00316 µM): 64.5%
viability, T/C (second compound 0.316 µM, first compound 0.01 µM): 70.9%
viability, T/C [7]: 72%
viability, T/C [8]: 74%
viability, T/C (second compound 1 µM, first compound 0.000316 µM): 72.8%
viability, T/C (second compound 1 µM, first compound 0.001 µM): 64.2%
viability, T/C (second compound 1 µM, first compound 0.00316 µM): 68%
viability, T/C (second compound 1 µM, first compound 0.01 µM): 72.7%
viability, T/C [13]: 74.2%
viability, T/C [14]: 62%
viability, T/C (second compound 3.16 µM, first compound 0.000316 µM): 58.1%
viability, T/C (second compound 3.16 µM, first compound 0.001 µM): 67.6%
viability, T/C (second compound 3.16 µM, first compound 0.00316 µM): 59.2%
viability, T/C (second compound 3.16 µM, first compound 0.01 µM): 55.2%
viability, T/C [19]: 51.3%
viability, T/C [20]: 54.8%
viability, T/C (second compound 10 µM, first compound 0.000316 µM): 38.2%
viability, T/C (second compound 10 µM, first compound 0.001 µM): 46.7%
viability, T/C (second compound 10 µM, first compound 0.00316 µM): 42.4%
viability, T/C (second compound 10 µM, first compound 0.01 µM): 39.2%
viability, T/C [25]: 38.9%
viability, T/C [26]: 40.2%

From PubChem BioAssay AID2060343 (Molecular Pharmacology Branch, DTP, NCI, 2025)
